Results taken from PubChem BioAssay AID1963974 (Molecular Pharmacology Branch, DTP, NCI, 2024).

Test system: 648629-189-R-J1-PDC spheroids with HUVEC/MSC, viability
Experiment: Anticancer human tumor 648629-189-R-J1-PDC patient-derived bladder carcinoma cell line growth inhibition [PI3K]
Conditions: for IC50: curve of first compound; for viability, T/C: stronger effect = lower value
Summary of the method: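 Three cell types, namely tumor cells, endothelial cells and mesenchymal stem cells, formed each spheroid. Combinations with four PI3K inhibitors were screened at clinically achievable concentrations decreasing by half-log, and spheroid viability was recorded.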

[1] = second compound 0.00316 µM, first compound 0.0316 µM
[2] = second compound 0.00316 µM, first compound 0.1 µM
[3] = second compound 0.00316 µM, first compound 0.316 µM
[4] = second compound 0.00316 µM, first compound 1 µM
[5] = second compound 0.01 µM, first compound 0.0316 µM
[6] = second compound 0.01 µM, first compound 0.1 µM
[7] = second compound 0.01 µM, first compound 0.316 µM
[8] = second compound 0.01 µM, first compound 1 µM
[9] = second compound 0.0316 µM, first compound 0.0316 µM
[10] = second compound 0.0316 µM, first compound 0.1 µM
[11] = second compound 0.0316 µM, first compound 0.316 µM
[12] = second compound 0.0316 µM, first compound 1 µM
[13] = second compound 0.1 µM, first compound 0.0316 µM
[14] = second compound 0.1 µM, first compound 0.1 µM
[15] = second compound 0.1 µM, first compound 0.316 µM
[16] = second compound 0.1 µM, first compound 1 µM
[17] = second compound 0.316 µM, first compound 0.0316 µM
[18] = second compound 0.316 µM, first compound 0.1 µM
[19] = second compound 0.316 µM, first compound 0.316 µM
[20] = second compound 0.316 µM, first compound 1 µM
[21] = second compound 1 µM, first compound 0.0316 µM
[22] = second compound 1 µM, first compound 0.1 µM
[23] = second compound 1 µM, first compound 0.316 µM
[24] = second compound 1 µM, first compound 1 µM
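Also: spheroids exposed to agents for seven days before reading.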
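For viability, T/C in this document: percent of vehicle control luminescence where 100% = DMSO treated spheroids.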

CC(C)NCC(C(=O)N1CCN(c2ncnc3c2C(C)CC3O)CC1)c1ccc(Cl)cc1 (centres undefined) + COc1c(OCCCN2CCOCC2)ccc2c3n(c(=NC(=O)c4cnc(N)nc4)nc12)CCN3
IC50 (second compound 0.00316 µM): 0.901 µM | IC50 (second compound 0.01 µM): 1.03 µM | IC50 (second compound 0.0316 µM): 0.698 µM | IC50 (second compound 0.1 µM): 0.144 µM | IC50 (second compound 0.316 µM): < 0.0316 µM | IC50 (second compound 1 µM): < 0.0316 µM | viability, T/C [1]: 90.2% | viability, T/C [2]: 91.7% | viability, T/C [3]: 79% | viability, T/C [4]: 45.4% | viability, T/C (second compound 0.00316 µM, first compound 3.16 µM): 26.1% | viability, T/C (second compound 0.00316 µM, first compound 10 µM): 14.3% | viability, T/C [5]: 102% | viability, T/C [6]: 73.5% | viability, T/C [7]: 75.1% | viability, T/C [8]: 54% | viability, T/C (second compound 0.01 µM, first compound 3.16 µM): 26.2% | viability, T/C (second compound 0.01 µM, first compound 10 µM): 13.3% | viability, T/C [9]: 77.7% | viability, T/C [10]: 77.6% | viability, T/C [11]: 67.1% | viability, T/C [12]: 40.5% | viability, T/C (second compound 0.0316 µM, first compound 3.16 µM): 24.6% | viability, T/C (second compound 0.0316 µM, first compound 10 µM): 11.6% | viability, T/C [13]: 60.1% | viability, T/C [14]: 51.3% | viability, T/C [15]: 45% | viability, T/C [16]: 27% | viability, T/C (second compound 0.1 µM, first compound 3.16 µM): 16.9% | viability, T/C (second compound 0.1 µM, first compound 10 µM): 8.23% | viability, T/C [17]: 19.3% | viability, T/C [18]: 18.4% | viability, T/C [19]: 14.6% | viability, T/C [20]: 12% | viability, T/C (second compound 0.316 µM, first compound 3.16 µM): 7.28% | viability, T/C (second compound 0.316 µM, first compound 10 µM): 2.74% | viability, T/C [21]: 2.91% | viability, T/C [22]: 2.63% | viability, T/C [23]: 3.85% | viability, T/C [24]: 3% | viability, T/C (second compound 1 µM, first compound 3.16 µM): 2.11% | viability, T/C (second compound 1 µM, first compound 10 µM): 0.84%

CCN1CCN(Cc2ccc(Nc3ncc(F)c(-c4cc(F)c5nc(C)n(C(C)C)c5c4)n3)nc2)CC1 + COc1c(OCCCN2CCOCC2)ccc2c3n(c(=NC(=O)c4cnc(N)nc4)nc12)CCN3
IC50 (second compound 0.00316 µM): > 1 µM | IC50 (second compound 0.01 µM): > 1 µM | IC50 (second compound 0.0316 µM): > 1 µM | IC50 (second compound 0.1 µM): > 1 µM | IC50 (second compound 0.316 µM): < 0.00316 µM | IC50 (second compound 1 µM): < 0.00316 µM | viability, T/C (second compound 0.00316 µM, first compound 0.00316 µM): 91% | viability, T/C (second compound 0.00316 µM, first compound 0.01 µM): 94.8% | viability, T/C [1]: 110% | viability, T/C [2]: 101% | viability, T/C [3]: 115% | viability, T/C [4]: 104% | viability, T/C (second compound 0.01 µM, first compound 0.00316 µM): 102% | viability, T/C (second compound 0.01 µM, first compound 0.01 µM): 87.8% | viability, T/C [5]: 98.9% | viability, T/C [6]: 96.5% | viability, T/C [7]: 103% | viability, T/C [8]: 106% | viability, T/C (second compound 0.0316 µM, first compound 0.00316 µM): 84.9% | viability, T/C (second compound 0.0316 µM, first compound 0.01 µM): 79% | viability, T/C [9]: 91.3% | viability, T/C [10]: 88.5% | viability, T/C [11]: 87.9% | viability, T/C [12]: 91% | viability, T/C (second compound 0.1 µM, first compound 0.00316 µM): 58.6% | viability, T/C (second compound 0.1 µM, first compound 0.01 µM): 62.4% | viability, T/C [13]: 56% | viability, T/C [14]: 58.5% | viability, T/C [15]: 66.6% | viability, T/C [16]: 66.1% | viability, T/C (second compound 0.316 µM, first compound 0.00316 µM): 21.4% | viability, T/C (second compound 0.316 µM, first compound 0.01 µM): 18.9% | viability, T/C [17]: 18.8% | viability, T/C [18]: 19.7% | viability, T/C [19]: 24.1% | viability, T/C [20]: 21.7% | viability, T/C (second compound 1 µM, first compound 0.00316 µM): 3.05% | viability, T/C (second compound 1 µM, first compound 0.01 µM): 2.93% | viability, T/C [21]: 2.76% | viability, T/C [22]: 4.51% | viability, T/C [23]: 6.23% | viability, T/C [24]: 9.27%
